Experimental data: ChEMBL document CHEMBL3638544, “Phenalkylamine derivatives, pharmaceutical compositions containing them, and their use in therapy” (2015)

Biological target: T1, Sodium- and chloride-dependent glycine transporter 1 (Homo sapiens, UniProt P48067)
T1 sequence (P48067 whole entry): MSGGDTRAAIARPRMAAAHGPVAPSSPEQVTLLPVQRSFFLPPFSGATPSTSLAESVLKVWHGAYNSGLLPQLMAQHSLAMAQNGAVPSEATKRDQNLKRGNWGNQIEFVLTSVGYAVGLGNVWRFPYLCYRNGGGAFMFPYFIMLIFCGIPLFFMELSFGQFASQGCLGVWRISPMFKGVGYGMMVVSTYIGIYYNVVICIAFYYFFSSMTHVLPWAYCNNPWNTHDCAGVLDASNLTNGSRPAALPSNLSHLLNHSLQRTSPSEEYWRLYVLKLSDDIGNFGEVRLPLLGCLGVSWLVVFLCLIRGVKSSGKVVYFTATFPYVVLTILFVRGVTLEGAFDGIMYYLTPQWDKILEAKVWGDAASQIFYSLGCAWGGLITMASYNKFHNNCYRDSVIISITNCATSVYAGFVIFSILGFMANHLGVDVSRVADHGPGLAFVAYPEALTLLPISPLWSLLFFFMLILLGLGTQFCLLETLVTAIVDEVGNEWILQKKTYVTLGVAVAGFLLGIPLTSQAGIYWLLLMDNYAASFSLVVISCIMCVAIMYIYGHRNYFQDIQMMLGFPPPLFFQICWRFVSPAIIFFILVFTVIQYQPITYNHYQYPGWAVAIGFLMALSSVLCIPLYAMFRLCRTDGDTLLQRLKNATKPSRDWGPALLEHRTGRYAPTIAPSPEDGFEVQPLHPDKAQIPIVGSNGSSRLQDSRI
Assay: Radioligand Binding Assay: Radioligand binding to human GlyT1c transporter-expressing membranes was determined as described in Mezler et al., Molecular Pharmacology 74:1705-1715, 2008.

Ki: < 10 µM
SMILES: NCC(Cc1ccccc1)c1ccc2c(c1)CN(S(=O)(=O)CC1CC1)CC2 (stereo unspecified)
